Drawing on US20190152957A1, “PYRIDIN-3-YL ACETIC ACID DERIVATIVES AS INHIBITORS OF HUMAN IMMUNODEFICIENCY VIRUS REPLICATION” (ViiV HEALTHCARE UK (NO.5) LIMITED, priority 2016, published 2019), this text covers EC50 for 16 compounds.

Structures are written as SMILES. Where two headings read alike, the source gives them in different places. A value given as a limit tells only on which side of the number the result lay.

For the test, the system named is recombinant NL-RLuc virus (HIV NL4-3 with Renilla Luciferase gene) in MT-2 cells. Briefly: Inhibition of HIV replication (NL-RLuc virus, luciferase readout in MT-2 cells). Type of test: cell-based. The settings on record: MT2, 120 h. From the text:
Inhibition of HIV Replication:
A recombinant NL-RLuc proviral clone was constructed in which a section of the nef gene from NL4-3 was replaced with the Renilla Luciferase gene. This virus is fully infectious and can undergo multiple cycles of replication in cell culture. In addition, the luciferous reporter provides a simple and easy method for quantitating the extent of virus growth and consequently, the antiviral activity of test compounds. The plasmid pNLRLuc contains the proviral NL-Rluc DNA cloned into pUC18 at the PvuII site. The NL-RLuc virus was prepared by transfection of 293T cells with the plasmid pNLRLuc. Transfections were performed using the LipofectAMINE PLUS kit from Invitrogen (Carlsbad, Calif.) according to the manufacturer and the virus generated was titered in MT-2 cells. For susceptibility analyses, the titrated virus was used to infect MT-2 cells in the presence of compound, and after 5 days of incubation, cells were processed and quantitated for virus growth by the amount of expressed luciferase. Assay media was RPMI 1640 supplemented with 10% heat inactivated fetal bovine serum (FBS), 100 units/ml penicillin G/100 units/ml streptomycin, 10 mM HEPES buffer pH 7.55 and 2 mM L-glutamine. The results from at least 2 experiments were used to calculate the EC50 values. Luciferase was quantitated using the Dual Luciferase kit from Promega (Madison, Wis.). Susceptibility of viruses to compounds was determined by incubation in the presence of serial dilutions of the compound. The 50% effective concentration (EC50) was calculated by using the exponential form of the median effect equation where (Fa)=1/[1+(ED50/drug conc.)^m](Johnson V A, Byington R T. Infectivity Assay. In Techniques in HIV Research. ed. Aldovini A, Walker BD. 71-76. New York: Stockton Press. 1990). Activity equal to A refers to a compound having an EC50≤100 nM, while B and C denote compounds having an EC50 between 100 nM and 1 uM (B) or >1 uM (C).

As for `Cc1nc(C)c([C@H](OC(C)(C)C)C(=O)O)c(N2CCC(C)(C)CC2)c1-c1ccc2c(c1)CCN(Cc1cscn1)C2` [Compound 10, (S)-2-(tert-butoxy)-2-(4-(4,4-dimethylpiperidin-1-yl)-2,6-dimethyl-5-(2-(thiazol-4-ylmethyl)-1,2,3,4-tetrahydroisoquinolin-6-yl)pyridin-3-yl)acetic acid], where the note is “read-out: Activity”, the EC50 is less than 0.1 µM.
On the same count and under the same terms, in the case of `Cc1nc(C)c([C@H](OC(C)(C)C)C(=O)O)c(N2CCC(C)(C)CC2)c1-c1ccc2c(c1)CCN(Cc1ccnc(Cl)c1F)C2` [Compound 28, (S)-2-(tert-butoxy)-2-(5-(2-((2-chloro-3-fluoropyridin-4-yl)methyl)-1,2,3,4-tetrahydroisoquinolin-6-yl)-4-(4,4-dimethylpiperidin-1-yl)-2,6-dimethylpyridin-3-yl)acetic acid] it was less than 0.1 µM; in that of `Cc1nc(C)c([C@H](OC(C)(C)C)C(=O)O)c(N2CCC(C)(C)CC2)c1-c1ccc2c(c1)CCN(Cc1c[nH]cn1)C2` [Compound 40, (S)-2-(5-(2-((1H-imidazol-4-yl)methyl)-1,2,3,4-tetrahydroisoquinolin-6-yl)-4-(4,4-dimethylpiperidin-1-yl)-2,6-dimethylpyridin-3-yl)-2-(tert-butoxy)acetic acid], more than 1 µM.
With `Cc1nc(C)c([C@H](OC(C)(C)C)C(=O)O)c(N2CCC(C)(C)CC2)c1-c1ccc2c(c1)CCN(Cc1cnn(-c3ccc(F)cc3)c1)C2` [Compound 19, (S)-2-(tert-butoxy)-2-(4-(4,4-dimethylpiperidin-1-yl)-5-(2-((1-(4-fluorophenyl)-1H-pyrazol-4-yl)methyl)-1,2,3,4-tetrahydroisoquinolin-6-yl)-2,6-dimethylpyridin-3-yl)acetic acid], under “read-out: Activity”, the EC50 is less than 0.1 µM.
Still for that read-out and setting: in the case of `Cc1nc(CN2CCc3cc(-c4c(C)nc(C)c([C@H](OC(C)(C)C)C(=O)O)c4N4CCC(C)(C)CC4)ccc3C2)c[nH]1` [Compound 43, (S)-2-(tert-butoxy)-2-(4-(4,4-dimethylpiperidin-1-yl)-2,6-dimethyl-5-(2-((2-methyl-1H-imidazol-4-yl)methyl)-1,2,3,4-tetrahydroisoquinolin-6-yl)pyridin-3-yl)acetic acid] it was less than 0.1 µM.
On to `Cc1nc(C)c([C@H](OC(C)(C)C)C(=O)O)c(N2CCC(C)(C)CC2)c1-c1ccc2c(c1)CCN(Cc1nc(-c3ccccc3)oc1C)C2` [Compound 14, (S)-2-(tert-butoxy)-2-(4-(4,4-dimethylpiperidin-1-yl)-2,6-dimethyl-5-(2-((5-methyl-2-phenyloxazol-4-yl)methyl)-1,2,3,4-tetrahydroisoquinolin-6-yl)pyridin-3-yl)acetic acid], for which the EC50 is less than 0.1 µM (read-out: Activity) and 0.016 µM (read-out: EC50 μM).
For `Cc1nc(C)c([C@H](OC(C)(C)C)C(=O)O)c(N2CCC(C)(C)CC2)c1-c1ccc2c(c1)CCN(Cc1cn[nH]c1)C2` [Compound 50, (S)-2-(5-(2-((1H-pyrazol-4-yl)methyl)-1,2,3,4-tetrahydroisoquinolin-6-yl)-4-(4,4-dimethylpiperidin-1-yl)-2,6-dimethylpyridin-3-yl)-2-(tert-butoxy)acetic acid], for the setting “read-out: Activity”, the EC50 is less than 0.1 µM.
On to `COc1ccc(CN2CCc3cc(-c4c(C)nc(C)c([C@H](OC(C)(C)C)C(=O)O)c4N4CCC(C)(C)CC4)ccc3C2)cn1` [Compound 47, (S)-2-(tert-butoxy)-2-(4-(4,4-dimethylpiperidin-1-yl)-5-(2-((6-methoxypyridin-3-yl)methyl)-1,2,3,4-tetrahydroisoquinolin-6-yl)-2,6-dimethylpyridin-3-yl)acetic acid], for which the EC50 was less than 0.1 µM (read-out: Activity) and 0.002 µM (read-out: EC50 μM).
`Cc1nc(C)c([C@H](OC(C)(C)C)C(=O)O)c(N2CCC(C)(C)CC2)c1-c1ccc2c(c1)CCN(Cc1nccs1)C2` [Compound 9, (S)-2-(tert-butoxy)-2-(4-(4,4-dimethylpiperidin-1-yl)-2,6-dimethyl-5-(2-(thiazol-2-ylmethyl)-1,2,3,4-tetrahydroisoquinolin-6-yl)pyridin-3-yl)acetic acid]: the EC50 (read-out: Activity) is less than 0.1 µM.
Still for that read-out and setting: the figure for `CCOc1ncccc1CN1CCc2cc(-c3c(C)nc(C)c([C@H](OC(C)(C)C)C(=O)O)c3N3CCC(C)(C)CC3)ccc2C1` [Compound 29, (S)-2-(tert-butoxy)-2-(4-(4,4-dimethylpiperidin-1-yl)-5-(2-((2-ethoxypyridin-3-yl)methyl)-1,2,3,4-tetrahydroisoquinolin-6-yl)-2,6-dimethylpyridin-3-yl)acetic acid] is less than 0.1 µM.
On the same count and under the same terms, the figure for `COc1ncc(CN2CCc3cc(-c4c(C)nc(C)c([C@H](OC(C)(C)C)C(=O)O)c4N4CCC(C)(C)CC4)ccc3C2)c(OC)n1` [Compound 48, (S)-2-(tert-butoxy)-2-(5-(2-((2,4-dimethoxypyrimidin-5-yl)methyl)-1,2,3,4-tetrahydroisoquinolin-6-yl)-4-(4,4-dimethylpiperidin-1-yl)-2,6-dimethylpyridin-3-yl)acetic acid] is less than 0.1 µM; for `CCn1cc(CN2CCc3cc(-c4c(C)nc(C)c([C@H](OC(C)(C)C)C(=O)O)c4N4CCC(C)(C)CC4)ccc3C2)c(C)n1` [Compound 22, (S)-2-(tert-butoxy)-2-(4-(4,4-dimethylpiperidin-1-yl)-5-(2-((1-ethyl-3-methyl-1H-pyrazol-4-yl)methyl)-1,2,3,4-tetrahydroisoquinolin-6-yl)-2,6-dimethylpyridin-3-yl)acetic acid] it is less than 0.1 µM.
Still for that read-out and setting: the figure for `Cc1cc(CN2CCc3cc(-c4c(C)nc(C)c([C@H](OC(C)(C)C)C(=O)O)c4N4CCC(C)(C)CC4)ccc3C2)[nH]n1` [Compound 42, (S)-2-(tert-butoxy)-2-(4-(4,4-dimethylpiperidin-1-yl)-2,6-dimethyl-5-(2-((3-methyl-1H-pyrazol-5-yl)methyl)-1,2,3,4-tetrahydroisoquinolin-6-yl)pyridin-3-yl)acetic acid] is less than 0.1 µM.
Take `COc1cccc(CN2CCc3cc(-c4c(C)nc(C)c([C@H](OC(C)(C)C)C(=O)O)c4N4CCC(C)(C)CC4)ccc3C2)n1` [Compound 30, (S)-2-(tert-butoxy)-2-(4-(4,4-dimethylpiperidin-1-yl)-5-(2-((6-methoxypyridin-2-yl)methyl)-1,2,3,4-tetrahydroisoquinolin-6-yl)-2,6-dimethylpyridin-3-yl)acetic acid]: under “read-out: Activity”, the EC50 was less than 0.1 µM.
With `Cc1nc(C)c([C@H](OC(C)(C)C)C(=O)O)c(N2CCC(C)(C)CC2)c1-c1ccc2c(c1)CCN(Cc1ccc(C(F)(F)F)nc1)C2` [Compound 34, (S)-2-(tert-butoxy)-2-(4-(4,4-dimethylpiperidin-1-yl)-2,6-dimethyl-5-(2-((6-(trifluoromethyl)pyridin-3-yl)methyl)-1,2,3,4-tetrahydroisoquinolin-6-yl)pyridin-3-yl)acetic acid], for the setting “read-out: Activity”, the EC50 is less than 0.1 µM.
Take `Cc1n[nH]cc1CN1CCc2cc(-c3c(C)nc(C)c([C@H](OC(C)(C)C)C(=O)O)c3N3CCC(C)(C)CC3)ccc2C1` [Compound 53, (S)-2-(tert-butoxy)-2-(4-(4,4-dimethylpiperidin-1-yl)-2,6-dimethyl-5-(2-((3-methyl-1H-pyrazol-4-yl)methyl)-1,2,3,4-tetrahydroisoquinolin-6-yl)pyridin-3-yl)acetic acid]: the EC50 by setting is: (read-out: Activity) less than 0.1 µM; (read-out: EC50 μM) 0.061 µM.
